Assay results taken from PubChem BioAssay (NCI).
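Five concentrations, 48 hours, 96-well plates. Abbreviation: GI50, concentration required for 50% inhibition of growth. TGI: total growth inhibition.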

Tests used:
Test in all cases: growth of human tumour cells (NCI), 48 h
[1] = system: T-47D breast
[2] = system: HOP-92 NSCLC
[3] = system: MDA-MB-468 breast
[4] = system: BT-549 breast
[5] = system: SNB-75 CNS
[6] = system: COLO 205 colon
[7] = system: HCT-15 colon
[8] = system: 786-0 renal
[9] = system: HCT-116 colon
[10] = system: HCC-2998 colon
[11] = system: HS 578T breast
[12] = system: OVCAR-5 ovarian
[13] = system: M14 melanoma
[14] = system: MDA-MB-231 breast
[15] = system: UO-31 renal
[16] = system: SF-539 CNS
[17] = system: K-562 leukemia
[18] = system: CAKI-1 renal
[19] = system: SF-268 CNS
[20] = system: NCI/ADR-RES ovarian
[21] = system: RPMI-8226 leukemia
[22] = system: A498 renal
[23] = system: SN12C renal
[24] = system: SK-MEL-2 melanoma
[25] = system: NCI-H460 lung
[26] = system: SK-MEL-28 melanoma
[27] = system: OVCAR-3 ovarian
[28] = system: PC-3 prostate
[29] = system: OVCAR-8 ovarian
[30] = system: SK-OV-3 ovarian
[31] = system: NCI-H522 lung
[32] = system: MALME-3M melanoma
[33] = system: OVCAR-4 ovarian
[34] = system: TK-10 renal
[35] = system: RXF 393 renal
[36] = system: HL-60(TB) leukemia
[37] = system: HOP-62 NSCLC
[38] = system: KM12 colon
[39] = system: UACC-62 melanoma
[40] = system: IGROV1 ovarian
[41] = system: SR leukemia
[42] = system: NCI-H23 lung
[43] = system: NCI-H226 lung
[44] = system: MOLT-4 leukemia
[45] = system: EKVX NSCLC
[46] = system: LOX IMVI melanoma
[47] = system: SF-295 CNS
[48] = system: SK-MEL-5 melanoma
[49] = system: CCRF-CEM leukemia
[50] = system: HT29 colon
[51] = system: SNB-19 CNS
[52] = system: A549 NSCLC
[53] = system: SW-620 colon
[54] = system: MCF7 breast
[55] = system: DU-145 prostate
[56] = system: UACC-257 melanoma
[57] = system: U251 CNS
[58] = system: MDA-MB-435
[59] = system: ACHN renal

## COc1c2c(cc3c1C(CCc1ccccc1)N(C)CC3)OCO2 (stereo not drawn)
[1]
  GI50: 11.3 µM
  TGI: 49.2 µM
[2]
  GI50: 5.53 µM
  TGI: 56.1 µM
[3]
  GI50: 11.7 µM
  TGI: 27.4 µM
[4]
  GI50: 14.3 µM
  TGI: 35.5 µM
[5]
  GI50: 11.6 µM
  TGI: 54 µM
[6]
  GI50: 10.4 µM
  TGI: 36.5 µM
[7]
  GI50: 22.5 µM
  TGI: > 100 µM
[8]
  GI50: 18.7 µM
  TGI: > 100 µM
[9]
  GI50: 4.32 µM
  TGI: > 100 µM
[10]
  GI50: 18.1 µM
  TGI: 61.1 µM
[11]
  GI50: 14.2 µM
  TGI: 67 µM
[12]
  GI50: 9.57 µM
  TGI: > 100 µM
[13]
  GI50: 7.57 µM
  TGI: 36.5 µM
[14]
  GI50: 10 µM
  TGI: 40.7 µM
[15]
  GI50: 8.35 µM
  TGI: > 100 µM
[16]
  GI50: 10.7 µM
  TGI: 35.5 µM
[17]
  GI50: 17.8 µM
  TGI: > 100 µM
[18]
  GI50: 10.5 µM
  TGI: > 100 µM
[19]
  GI50: 17.3 µM
  TGI: > 100 µM
[20]
  GI50: 15.6 µM
  TGI: 81.1 µM
[21]
  GI50: 6.07 µM
  TGI: 38.2 µM
[22]
  GI50: 12.1 µM
  TGI: 48.3 µM
[23]
  GI50: 10.2 µM
  TGI: > 100 µM
[24]
  GI50: 24.6 µM
  TGI: 98.3 µM
[25]
  GI50: 7.61 µM
  TGI: 54.3 µM
[26]
  GI50: 15.8 µM
  TGI: 59.3 µM
[27]
  GI50: 13.8 µM
  TGI: 77.3 µM
[28]
  GI50: 11.3 µM
  TGI: > 100 µM
[29]
  GI50: 31.3 µM
  TGI: > 100 µM
[30]
  GI50: 27.4 µM
  TGI: > 100 µM
[31]
  GI50: 18.4 µM
  TGI: 65.4 µM
[32]
  GI50: 13 µM
  TGI: 27.3 µM
[33]
  GI50: 26.4 µM
  TGI: > 100 µM
[34]
  GI50: 47.2 µM
  TGI: > 100 µM
[35]
  GI50: 11.8 µM
  TGI: 55 µM
[36]
  GI50: 4.8 µM
  TGI: 26.4 µM
[37]
  GI50: 8.32 µM
  TGI: > 100 µM
[38]
  GI50: 21.4 µM
  TGI: 70 µM
[39]
  GI50: 12 µM
  TGI: 43.9 µM
[40]
  GI50: 10 µM
  TGI: 62.6 µM
[41]
  GI50: 10.6 µM
  TGI: 53.3 µM
[42]
  GI50: 16.2 µM
  TGI: > 100 µM
[43]
  GI50: 13.8 µM
  TGI: > 100 µM
[44]
  GI50: 15.8 µM
  TGI: 65.1 µM
[45]
  GI50: 30.5 µM
  TGI: > 100 µM
[46]
  GI50: 5.31 µM
  TGI: 19.4 µM
[47]
  GI50: 4.34 µM
  TGI: 28.9 µM
[48]
  GI50: 13.8 µM
  TGI: 26.8 µM
[49]
  GI50: 19.2 µM
  TGI: > 100 µM
[50]
  GI50: 5.9 µM
  TGI: 65.3 µM
[51]
  GI50: 21.7 µM
  TGI: > 100 µM
[52]
  GI50: 31.5 µM
  TGI: > 100 µM
[53]
  GI50: 10.3 µM
  TGI: 59.6 µM
[54]
  GI50: 14.6 µM
  TGI: 43.1 µM
[55]
  GI50: 36 µM
  TGI: > 100 µM
[56]
  GI50: 29.3 µM
  TGI: > 100 µM
[57]
  GI50: 24.5 µM
  TGI: > 100 µM
[58]
  GI50: 6.25 µM
  TGI: 36.5 µM
[59]
  GI50: 13.5 µM
  TGI: > 100 µM
